The values below come from ChEMBL document CHEMBL1201862, “PubChem BioAssay data set” (2004).

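Five compound concentrations were applied to cells in 96-well plates for 48 hours; endpoints were derived by simple linear interpolation of the resulting dose-response curve. Here, GI50 denotes the concentration required for 50% inhibition of growth.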 Active and inactive are the calls of the source. Cut-off read from the data, not from the text of the source: active = GI50 up to about 1.1 µM and inactive = higher.

Test systems include 786-0; NCI-H522; TK-10; CCRF-CEM; SNB-19; LOX IMVI; KM12; OVCAR-3; HT-29; HCT-116; COLO 205; SF-295; Hs-578T; SR; SF-268; CAKI-1; HOP-62; HL-60; MDA-MB-435; NCI-H460.
Assay in all cases: NCI-60 cell line screen, 48 h

As for `O=C1NC(N2CCCC(CO)C2)=N/C1=C\c1ccc(Cl)cc1` (stereo unspecified), the GI50 in the experiment on 786-0 is > 100 µM (inactive); with NCI-H522 it was > 100 µM (inactive); in the experiment on TK-10, > 100 µM (inactive); with CCRF-CEM, > 100 µM (inactive); in the experiment on SNB-19, > 100 µM (inactive); with LOX IMVI, 87.5 µM (inactive). Also, the GI50 with KM12 is 63.7 µM (inactive); in the experiment with OVCAR-3 it was > 100 µM (inactive); with HT-29, > 100 µM (inactive); with HCT-116, > 100 µM (inactive); in the experiment with COLO 205, > 100 µM (inactive); with SF-295 it was > 100 µM (inactive). For the same molecule, the GI50 in the experiment on Hs-578T, with SR, with SF-268, with CAKI-1, in the experiment on HOP-62 and in the experiment on HL-60 was > 100 µM (inactive) in each case. Also, the GI50 in the experiment on MDA-MB-435 was > 100 µM (inactive).

Turning to `CCN(CC)CCOc1ccc(N2Cc3ccccc3C2=O)cc1`, the GI50 in the experiment on 786-0, with NCI-H522, in the experiment with TK-10, in the experiment on CCRF-CEM, in the experiment on SNB-19 and with LOX IMVI was > 10 µM (inactive) throughout. Further, the GI50 in the experiment with OVCAR-3 was > 10 µM (inactive); in the experiment with NCI-H460, 7.28 µM (inactive); with HT-29, > 10 µM (inactive); with HCT-116 it was > 10 µM (inactive); in the experiment on COLO 205 it was > 10 µM (inactive); in the experiment with SF-295, > 10 µM (inactive). For the same molecule, the GI50 in the experiment on Hs-578T, with SR, with SF-268, with CAKI-1, in the experiment on HOP-62 and in the experiment on HL-60 was > 10 µM (inactive) each time. For the same molecule, in the experiment on MDA-MB-435, the GI50 is > 10 µM (inactive).

Take `COc1cc(C(C)(C)C)c(OC(=O)/C=C/C(=O)O/C=C/[N+](=O)[O-])c(C(C)(C)C)c1`: the GI50 with 786-0 was 34.4 µM (inactive); with NCI-H522, 29.9 µM (inactive); in the experiment with TK-10 it was 85.3 µM (inactive); in the experiment with CCRF-CEM it was 10.2 µM (inactive); with LOX IMVI, 24.2 µM (inactive); with KM12, 16.8 µM (inactive). Also, the GI50 in the experiment on OVCAR-3 is 32.7 µM (inactive); in the experiment on NCI-H460 it was 66.4 µM (inactive); in the experiment with HT-29 it was 21.1 µM (inactive); in the experiment on HCT-116 it was 46.5 µM (inactive); in the experiment with COLO 205, 42.9 µM (inactive); with SF-295, > 100 µM (inactive). Besides, the GI50 in the experiment on Hs-578T was 28.6 µM (inactive); in the experiment on SR it was 63.8 µM (inactive); with SF-268, 30.2 µM (inactive); in the experiment on CAKI-1 it was 23.5 µM (inactive); in the experiment with HOP-62, > 100 µM (inactive); in the experiment on HL-60, 0.324 µM (active). Further, the GI50 with MDA-MB-435 was 21.2 µM (inactive).

As for `Cn1ccc(C(=O)NCCCCCNC(=O)c2ccn(C)c(=O)c2O)c(O)c1=O`, the GI50 in the experiment with 786-0, in the experiment with NCI-H522, in the experiment with TK-10, with CCRF-CEM, in the experiment with SNB-19 and with LOX IMVI was > 100 µM (inactive) in each case. Further, the GI50 with KM12, with NCI-H460, with HT-29, in the experiment with HCT-116, in the experiment with COLO 205 and in the experiment with Hs-578T was > 100 µM (inactive) throughout. In addition, the GI50 with SR, in the experiment with SF-268, in the experiment with CAKI-1, in the experiment with HL-60 and in the experiment with MDA-MB-435 was > 100 µM (inactive) throughout.

For `CCOc1ccccc1/N=N/C1C(=O)N(C(=O)CC(=O)Nc2ccccc2C)N=C1C` (stereo unspecified), the GI50 in the experiment with 786-0 is 46.9 µM (inactive); with NCI-H522, 61.2 µM (inactive); in the experiment on TK-10 it was 52.4 µM (inactive); with CCRF-CEM, > 100 µM (inactive); with LOX IMVI, > 100 µM (inactive); with KM12 it was > 100 µM (inactive). Besides, the GI50 in the experiment on OVCAR-3 was 87.9 µM (inactive); with NCI-H460 it was 43.7 µM (inactive); in the experiment with HT-29, > 100 µM (inactive); in the experiment on HCT-116 it was 44.4 µM (inactive); with COLO 205 it was > 100 µM (inactive); with SF-295 it was 15.9 µM (inactive). Further, the GI50 with Hs-578T is 6.55 µM (inactive); in the experiment on SR it was > 100 µM (inactive); in the experiment with SF-268, 19.6 µM (inactive); in the experiment on CAKI-1, > 100 µM (inactive); with HOP-62, 19.9 µM (inactive); in the experiment on HL-60, > 100 µM (inactive). Besides, in the experiment on MDA-MB-435, the GI50 is > 100 µM (inactive).

Take `COCCc1c(C)c(C#N)c2n(C)c3ccccc3n2c1=O`: the GI50 with 786-0, with NCI-H522, in the experiment on TK-10, in the experiment on SNB-19, in the experiment on LOX IMVI and in the experiment with KM12 was > 10 µM (inactive) throughout. Also, the GI50 in the experiment with OVCAR-3, in the experiment with NCI-H460, in the experiment with HT-29, in the experiment on HCT-116, in the experiment with COLO 205 and with SF-295 was > 10 µM (inactive) in each case. In addition, the GI50 in the experiment on Hs-578T was > 10 µM (inactive); with SR it was > 10 µM (inactive); in the experiment with SF-268 it was > 10 µM (inactive); in the experiment with CAKI-1, > 10 µM (inactive); in the experiment with HOP-62 it was > 10 µM (inactive); with HL-60 it was 0.00575 µM (active). The GI50 in the experiment on MDA-MB-435 was > 10 µM (inactive).

`Cc1ccc(C(=O)Nc2ccc(CP(=O)(O)O)cc2CP(=O)(O)O)cc1N`: the GI50 in the experiment on 786-0, in the experiment on NCI-H522, with TK-10, in the experiment on CCRF-CEM, in the experiment with SNB-19 and with LOX IMVI was > 100 µM (inactive) in each case. Further, the GI50 in the experiment with KM12, with OVCAR-3, with HT-29, in the experiment with HCT-116, in the experiment with COLO 205 and in the experiment with SF-295 was > 100 µM (inactive) in each case. The GI50 in the experiment on Hs-578T, in the experiment with SR, in the experiment on SF-268, in the experiment on CAKI-1, in the experiment with HOP-62 and in the experiment with HL-60 was > 100 µM (inactive) throughout. Also, the GI50 in the experiment on MDA-MB-435 was > 100 µM (inactive).

Turning to `COc1cc(C2CC(C)(N3CCOCC3)Oc3cc4c(cc32)OCO4)cc(OC)c1OC` (stereo unspecified), the GI50 in the experiment with 786-0 is 0.157 µM (active); in the experiment with NCI-H522 it was 0.226 µM (active); in the experiment with CCRF-CEM, 0.0352 µM (active); in the experiment on SNB-19, 0.589 µM (active); in the experiment with LOX IMVI, 0.136 µM (active); with KM12 it was 0.0634 µM (active). Also, the GI50 in the experiment on OVCAR-3 was 0.207 µM (active); in the experiment on NCI-H460, 0.156 µM (active); in the experiment on HT-29, 0.131 µM (active); with HCT-116, 0.129 µM (active); in the experiment with COLO 205, 0.845 µM (active); in the experiment on SF-295, 0.104 µM (active). Also, the GI50 was 0.191 µM (active) in the experiment with Hs-578T; 0.206 µM (active) in the experiment on SR; 4.83 µM (inactive) in the experiment with SF-268; 0.177 µM (active) in the experiment on CAKI-1; 0.27 µM (active) in the experiment with HOP-62; 0.0228 µM (active) with HL-60. In addition, the GI50 with MDA-MB-435 is < 0.01 µM (active).

Turning to `CC(=O)N(C)c1ccc(/N=C/N(C)C)cc1`, the GI50 with 786-0, in the experiment with NCI-H522, in the experiment with TK-10, in the experiment with CCRF-CEM, in the experiment on SNB-19 and in the experiment on LOX IMVI was > 100 µM (inactive) each time. In addition, the GI50 in the experiment with OVCAR-3 is 44 µM (inactive); in the experiment on HT-29 it was > 100 µM (inactive); with HCT-116, > 100 µM (inactive); with COLO 205 it was > 100 µM (inactive); in the experiment on SF-295, > 100 µM (inactive); in the experiment on Hs-578T, > 10 µM (inactive). Besides, the GI50 in the experiment with SR, in the experiment on SF-268, in the experiment on CAKI-1, in the experiment on HOP-62, with HL-60 and in the experiment with MDA-MB-435 was > 100 µM (inactive) throughout.

With `C1=C\SS/C=C\SS/C=C\SS/C=C\SS/1`, the GI50 is 46 µM (inactive) with 786-0; 15.2 µM (inactive) in the experiment with NCI-H522; > 100 µM (inactive) with TK-10; 10.2 µM (inactive) in the experiment with CCRF-CEM; 67.5 µM (inactive) in the experiment on SNB-19; 42.4 µM (inactive) with LOX IMVI. Also, the GI50 in the experiment on KM12 was > 100 µM (inactive); in the experiment with NCI-H460, 22.9 µM (inactive); in the experiment with HT-29, 31.6 µM (inactive); with HCT-116, > 100 µM (inactive); in the experiment on COLO 205, > 100 µM (inactive); with SF-295, 45.3 µM (inactive). In addition, the GI50 was > 100 µM (inactive) with Hs-578T; 54.1 µM (inactive) in the experiment on SR; 70.8 µM (inactive) with SF-268; 30.3 µM (inactive) with CAKI-1; 69.7 µM (inactive) with HOP-62; 24.9 µM (inactive) with HL-60. Besides, in the experiment on MDA-MB-435, the GI50 is > 100 µM (inactive).

For the molecule `Cc1ccc(-n2cc(-c3ccc(Cl)cc3)c3c2N=CN2N=C(c4cccs4)NC32)cc1` (stereo unspecified), the GI50 in the experiment on 786-0 is 4.28 µM (inactive); in the experiment on NCI-H522, 21.6 µM (inactive); with TK-10, 11.2 µM (inactive); in the experiment on CCRF-CEM, 11.2 µM (inactive); in the experiment with SNB-19 it was 17.9 µM (inactive); in the experiment with LOX IMVI, 15.7 µM (inactive). Also, the GI50 with OVCAR-3 is 9.73 µM (inactive); in the experiment on NCI-H460 it was 5.31 µM (inactive); in the experiment with HT-29 it was 23 µM (inactive); in the experiment on HCT-116, 5.13 µM (inactive); with COLO 205 it was 6.71 µM (inactive); in the experiment with SF-295 it was 9.18 µM (inactive). Besides, the GI50 in the experiment on Hs-578T was 2.07 µM (inactive); with SR, 7.64 µM (inactive); in the experiment on SF-268 it was 17.8 µM (inactive); in the experiment on CAKI-1, 16 µM (inactive); in the experiment on HOP-62, 15.7 µM (inactive); with HL-60 it was 19.1 µM (inactive). Also, in the experiment with MDA-MB-435, the GI50 is 38.7 µM (inactive).
